pKi: −log10 of the molar value. Where a name gives a salt, the structure may show the parent alone.
What follows are compounds tested against T1, Human Histamine H3 Receptor (Homo sapiens, UniProt Q9Y5N1) (assay: Methyl histamine binding in human histamine H3 receptor cell line). Conditions: read-out: H3 Binding Ki.
T1 construct: expressed in transfected cells; host or cells: HEK293T (stably transfected; membranes prepared from the cells)
Method: Evaluation of Methyl Histamine Binding in Human Histamine H3 Receptor Cell Line
The affinity of test compounds for the histamine 3 (H3) receptor is evaluated in the following manner. […] Cells are scraped from the plate, transferred to centrifuge tubes, washed one time in PBS by centrifugation in a Sorvall RT7 Plus centrifuge (2000 rpm 10 minutes, 4° C.). The resulting pellets are stored at −80° C. until ready for use. Cells are re-suspended in buffer (50 mM Tris pH=7.5) and placed in a Dounce homogenizer, douncing ten times to homogenize cells. The homogenate is spun down by centrifugation (Sorvall RT7 Plus, 1800 rpm 10 minutes, 4° C.). The supernatant is placed in a Corex tube and spun down by centrifugation (Sorvall RC 5c Plus, 17,000 rpm 20 minutes, 4° C.). The pellet is resuspended in buffer (50 mM Tris, pH 7.5). Protein concentration (ug/ul) is determined using the Micro-BCA Protein Determination. The binding assay is set up in a 96 well microtiter plate in a total volume of 250 uL. Non-specific binding is determined in the presence of 10 uM clobenpropit. The final radioligand concentration is 1 nM. The test compound is serially diluted using the Beckman Biomek2000 to a final approximate range of 100 uM to 100 pM. Membranes are suspended in buffer, homogenized in 2 bursts of ten seconds using a Vitris mechanical homogenizer set at power setting 5. Ten μg of membranes are added to each well. Following a one hour incubation at 30° C., the reaction is terminated by the addition of ice cold buffer and rapid filtration with a Packard Filtermate Harvester through a GF/B filter pre-soaked with 1% PEI for one hour. The plate is dried for one hour at 37° C. and 60 μL Microscint Scintillant is added to each well. The CPM per well is measured on a Packard Top Count NXT. Ki values are determined in nM. […] CPM values are expressed as % specific binding and plotted vs compound concentration. A curve is fitted using a four-parameter logistic fit and the IC50 value is determined. The Ki is calculated from this using the Cheng-Prusoff equation: […]=IC50/1+(L/Kd) where L=concentration of free radioligand used in the assay, and Kd is the dissociation constant of the radioligand for the receptor. L is determined for each experiment by counting an aliquot of the diluted radioligand (corresponding to that added to each well) and the Kd has previously been determined under identical conditions for this cell line/radioligand.

T1 sequence (Q9Y5N1 whole entry): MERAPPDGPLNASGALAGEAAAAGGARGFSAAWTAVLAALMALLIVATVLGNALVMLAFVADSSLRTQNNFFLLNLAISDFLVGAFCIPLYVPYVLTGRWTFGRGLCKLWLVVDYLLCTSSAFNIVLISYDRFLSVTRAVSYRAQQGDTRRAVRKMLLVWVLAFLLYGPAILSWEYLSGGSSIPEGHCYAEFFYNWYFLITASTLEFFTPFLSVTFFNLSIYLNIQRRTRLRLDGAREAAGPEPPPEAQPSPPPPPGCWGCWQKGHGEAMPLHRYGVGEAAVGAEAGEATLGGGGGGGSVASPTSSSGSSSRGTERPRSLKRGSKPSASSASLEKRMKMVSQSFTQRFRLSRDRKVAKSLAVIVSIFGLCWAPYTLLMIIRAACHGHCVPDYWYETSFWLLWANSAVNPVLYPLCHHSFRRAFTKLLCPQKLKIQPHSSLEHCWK

SMILES | pKi
C[C@@H]1CCCN1CCN1CCc2cc(Oc3ccc(C#N)nc3)ccc2C1=O [Example 51, 5-[(2-{2-[(2R)-2-methylpyrrolidin-1-yl]ethyl}-1-oxo-1,2,3,4-tetrahydroisoquinolin-6-yl)oxy]pyridine-2-carbonitrile] | > 8.00
N#Cc1ccc(Oc2ccc3c(c2)CCN(CCN2CCCC2)C3=O)cn1 [Example 52, 5-{[1-oxo-2-(2-pyrrolidin-1-ylethyl)-1,2,3,4-tetrahydroisoquinolin-6-yl]oxy}pyridine-2-carbonitrile] | > 8.00
O=C(c1ccc(-c2ccc3c(c2)CCN(CCN2CCCC2)C3=O)cc1)N1CCCC1 [Example 54, 6-[4-(pyrrolidin-1-ylcarbonyl)phenyl]-2-(2-pyrrolidin-1-ylethyl)-3,4-dihydroisoquinolin-1(2H)-one hydrochloride] | > 8.00
CN(C)C(=O)c1ccc(-c2ccc3c(c2)CCN(CCN2CCCC2)C3=O)cc1 [Example 56, N,N-dimethyl-4-[1-oxo-2-(2-pyrrolidin-1-ylethyl)-1,2,3,4-tetrahydroisoquinolin-6-yl]benzamide] | > 8.00
O=C(NC1CC1)c1ccc(-c2ccc3c(c2)CCN(CCN2CCCC2)C3=O)cc1 [Example 57, N-cyclopropyl-4-[1-oxo-2-(2-pyrrolidin-1-ylethyl)-1,2,3,4-tetrahydroisoquinolin-6-yl]benzamide] | > 8.00
CCNC(=O)c1ccc(-c2ccc3c(c2)CCN(CCN2CCCC2)C3=O)cc1 [Example 58, N-ethyl-4-[1-oxo-2-(2-pyrrolidin-1-ylethyl)-1,2,3,4-tetrahydroisoquinolin-6-yl]benzamide] | > 8.00
CNC(=O)c1ccc(-c2ccc3c(c2)CCN(CCN2CCCC2)C3=O)cc1 [Example 59, N-methyl-4-[1-oxo-2-(2-pyrrolidin-1-ylethyl)-1,2,3,4-tetrahydroisoquinolin-6-yl]benzamide] | > 8.00
O=C(NCC1CC1)c1ccc(-c2ccc3c(c2)CCN(CCN2CCCC2)C3=O)cc1 [Example 60, N-(cyclopropylmethyl)-4-[1-oxo-2-(2-pyrrolidin-1-ylethyl)-1,2,3,4-tetrahydroiso-quinolin-6-yl]benzamide] | > 8.00
CC(C)NC(=O)c1ccc(-c2ccc3c(c2)CCN(CCN2CCCC2)C3=O)cc1 [Example 61, N-isopropyl-4-[1-oxo-2-(2-pyrrolidin-1-ylethyl)-1,2,3,4-tetrahydroisoquinolin-6-yl]benzamide] | > 8.00
CCN(CC)C(=O)c1ccc(-c2ccc3c(c2)CCN(CCN2CCCC2)C3=O)cc1 [Example 62, N,N-diethyl-4-[1-oxo-2-(2-pyrrolidin-1-ylethyl)-1,2,3,4-tetrahydroisoquinolin-6-yl]benzamide] | > 8.00
O=C(NC1CCC1)c1ccc(-c2ccc3c(c2)CCN(CCN2CCCC2)C3=O)cc1 [Example 63, N-cyclobutyl-4-[1-oxo-2-(2-pyrrolidin-1-ylethyl)-1,2,3,4-tetrahydroisoquinolin-6-yl]benzamide] | > 8.00
O=C(c1ccc(-c2ccc3c(c2)CCN(CCN2CCCC2)C3=O)cc1)N1CCC1 [Example 64, 6-[4-(azetidin-1-ylcarbonyl)phenyl]-2-(2-pyrrolidin-1-ylethyl)-3,4-dihydroisoquinolin-1(2H)-one] | > 8.00
CCN(CC)C(=O)c1ccc(-c2ccc3c(c2)CCN(CCN2CCC[C@H]2C)C3=O)cc1 [Example 65, N,N-diethyl-4-(2-{2-[(2R)-2-methylpyrrolidin-1-yl]ethyl}-1-oxo-1,2,3,4-tetrahydroisoquinolin-6-yl)benzamide] | > 8.00
C[C@@H]1CCCN1CCN1CCc2cc(-c3ccc(C(=O)N4CCCC4)cc3)ccc2C1=O [Example 66, 2-{2-[(2R)-2-methylpyrrolidin-1-yl]ethyl}-6-[4-(pyrrolidin-1-ylcarbonyl)phenyl]-3,4-dihydroisoquinolin-1(2H)-one] | > 8.00
NC(=O)c1ccc(-c2ccc3c(c2)CCN(CCN2CCCC2)C3=O)cc1 [Example 67, 4-[1-oxo-2-(2-pyrrolidin-1-ylethyl)-1,2,3,4-tetrahydroisoquinolin-6-yl]benzamide] | > 8.00
O=C(NCCF)c1ccc(-c2ccc3c(c2)CCN(CCN2CCCC2)C3=O)cc1 [Example 68, N-(2-fluoroethyl)-4-[1-oxo-2-(2-pyrrolidin-1-ylethyl)-1,2,3,4-tetrahydroisoquinolin-6-yl]benzamide] | > 8.00
COCCNC(=O)c1ccc(-c2ccc3c(c2)CCN(CCN2CCCC2)C3=O)cc1 [Example 69, N-(2-methoxyethyl)-4-[1-oxo-2-(2-pyrrolidin-1-ylethyl)-1,2,3,4-tetrahydroisoquinolin-6-yl]benzamide] | > 8.00
CC(C)OCCNC(=O)c1ccc(-c2ccc3c(c2)CCN(CCN2CCCC2)C3=O)cc1 [Example 70, N-(2-isopropoxyethyl)-4-[1-oxo-2-(2-pyrrolidin-1-ylethyl)-1,2,3,4-tetrahydroisoquinolin-6-yl]benzamide] | > 8.00
O=C(NCCOc1ccccc1)c1ccc(-c2ccc3c(c2)CCN(CCN2CCCC2)C3=O)cc1 [Example 71, 4-[1-oxo-2-(2-pyrrolidin-1-ylethyl)-1,2,3,4-tetrahydroisoquinolin-6-yl]-N-(2-phenoxyethyl)-benzamide] | 7.00 to 7.30
CCOCCNC(=O)c1ccc(-c2ccc3c(c2)CCN(CCN2CCCC2)C3=O)cc1 [Example 72, N-(2-ethoxyethyl)-4-[1-oxo-2-(2-pyrrolidin-1-ylethyl)-1,2,3,4-tetrahydroisoquinolin-6-yl]benzamide] | 7.60 to 8.00
C[C@@H]1CCCN1CCN1CCc2cc(-c3ccc(C(=O)NCC4CC4)cc3)ccc2C1=O [Example 73, N-(cyclopropylmethyl)-4-(2-{2-[(2R)-2-methylpyrrolidin-1-yl]ethyl}-1-oxo-1,2,3,4-tetrahydroisoquinolin-6-yl)benzamide] | > 8.00
C[C@@H]1CCCN1CCN1CCc2cc(-c3ccc(C(=O)NC4CCC4)cc3)ccc2C1=O [Example 74, N-cyclobutyl-4-(2-{2-[(2R)-2-methylpyrrolidin-1-yl]ethyl}-1-oxo-1,2,3,4-tetrahydroisoquinolin-6-yl)benzamide] | > 8.00
CCNC(=O)c1ccc(-c2ccc3c(c2)CCN(CCN2CCC[C@H]2C)C3=O)cc1 [Example 75, N-ethyl-4-(2-{2-[(2R)-2-methylpyrrolidin-1-yl]ethyl}-1-oxo-1,2,3,4-tetrahydroisoquinolin-6-yl)benzamide] | > 8.00
C[C@@H]1CCCN1CCN1CCc2cc(-c3ccc(C(=O)NC4CC4)cc3)ccc2C1=O [Example 76, N-cyclopropyl-4-(2-{2-[(2R)-2-methylpyrrolidin-1-yl]ethyl}-1-oxo-1,2,3,4-tetrahydroisoquinolin-6-yl)benzamide] | > 8.00
CC(C)NC(=O)c1ccc(-c2ccc3c(c2)CCN(CCN2CCC[C@H]2C)C3=O)cc1 [Example 77, N-isopropyl-4-(2-{2-[(2R)-2-methylpyrrolidin-1-yl]ethyl}-1-oxo-1,2,3,4-tetrahydroisoquinolin-6-yl)benzamide] | > 8.00
CNC(=O)c1ccc(-c2ccc3c(c2)CCN(CCN2CCC[C@H]2C)C3=O)cc1 [Example 78, N-methyl-4-(2-{2-[(2R)-2-methylpyrrolidin-1-yl]ethyl}-1-oxo-1,2,3,4-tetrahydroisoquinolin-6-yl)benzamide] | > 8.00
O=C(c1ccc(-c2ccc3c(c2)CCN(CCN2CCCC2)C3=O)cc1)N1CCCCC1 [Example 79, 6-[4-(piperidin-1-ylcarbonyl)phenyl]-2-(2-pyrrolidin-1-ylethyl)-3,4-dihydroisoquinolin-1(2H)-one] | > 8.00
C[C@@H]1CCCN1CCN1CCc2cc(-c3ccc(C(=O)NC4CCCC4)cc3)ccc2C1=O [Example 80, N-cyclopentyl-4-(2-{2-[(2R)-2-methylpyrrolidin-1-yl]ethyl}-1-oxo-1,2,3,4-tetrahydroisoquinolin-6-yl)benzamide] | > 8.00
C[C@H]1CCCN1C(=O)c1ccc(-c2ccc3c(c2)CCN(CCN2CCCC2)C3=O)cc1 [Example 81, 6-(4-{[(2S)-2-methylpyrrolidin-1-yl]carbonyl}phenyl)-2-(2-pyrrolidin-1-ylethyl)-3,4-dihydroisoquinolin-1(2H)-one] | > 8.00
C[C@@H]1CCCN1C(=O)c1ccc(-c2ccc3c(c2)CCN(CCN2CCCC2)C3=O)cc1 [Example 82, 6-(4-{[(2R)-2-methylpyrrolidin-1-yl]carbonyl}phenyl)-2-(2-pyrrolidin-1-ylethyl)-3,4-dihydroisoquinolin-1(2H)-one] | > 8.00
